Source: patent US6726940B2, “Use of at least one extract of the genus chrysanthemum for assisting skin and/or hair pigmentation” (Societe L'Oreal S.A., priority 1997, dated 2004)

Experiments:
[1] = tested on: co-cultures of normal human keratinocytes/melanocytes; assay: Modulation of melanogenesis: incorporation of 14C thiouracil in co-cultures of keratinocytes/melanocytes; type: cell-based; conditions: NHK/NHM co-culture, three days treatment
Protocol: The modulator effect on melanogenesis of the extract obtained by Protocol 2 of Example 1 was tested on co-cultures of normal human keratinocytes/melanocytes according to the method described in the Patent FR 95 06491. The rate of synthesis of melanine is evaluated by the incorporation of thiouracil labelled with C^14. The synthesis of the proteins, determined by the incorporation of tritiated leucine, is taken as an indicator of cytotoxicity and of proliferation. The normal human keratinocytes (NHK) and the normal human melanocytes (NHM) are cultured from preputial skin. The two types of cells are proliferated and stored frozen. […] The proteins are precipitated with the aid of 5% trichloroacetic acid (TCA) and washed in order to eliminate the free radioactivity. […] The radioactivity is counted with the aid of the Wallac counter. The results are expressed as a percentage of the control according to the formula: [formula] in which: ^14CP is the average of the disintegrations per minute (dpm) of ^14C thiouracil in 3 similar wells treated with a product (P); ^3HP is the average of the corresponding ^3H leucine dpm; ^14CT is the average of the ^14C thiouracil dpm in 3 similar control wells (T); ^3HT is the average of the corresponding ^3H leucine dpm.

[2] = tested on: co-cultures of normal human keratinocytes/melanocytes; assay: Synthesis of proteins: incorporation of tritiated leucine, indicator of cytotoxicity and of proliferation; type: cell-based; conditions: NHK/NHM co-culture, three days treatment
Protocol: The modulator effect on melanogenesis of the extract obtained by Protocol 2 of Example 1 was tested on co-cultures of normal human keratinocytes/melanocytes according to the method described in the Patent FR 95 06491. The rate of synthesis of melanine is evaluated by the incorporation of thiouracil labelled with C^14. The synthesis of the proteins, determined by the incorporation of tritiated leucine, is taken as an indicator of cytotoxicity and of proliferation.
The normal human keratinocytes (NHK) and the normal human melanocytes (NHM) are cultured from preputial skin. The two types of cells are proliferated and stored frozen. Eight days before the test, each of the cell types is again put into culture in KGM medium from Gibco for keratinocytes (NHK) and into M2 medium from Dr Olsson for melanocytes (NHM) (Olsson, M. J. et al., Lancet (1992) 340, 981). […]
The total radioactivity incorporated in the proteins is estimated by the incorporation of tritiated leucine. […]
After one night, the cells are rinsed in phosphate buffer. The proteins are precipitated with the aid of 5% trichloroacetic acid (TCA) and washed in order to eliminate the free radioactivity. […]
The remainder of the extract, or 950 μl, is filtered through a DEAE Filtermat filter. […] The radioactivity is counted with the aid of the Wallac counter. The results are expressed as a percentage of the control according to the formula: [formula] […]

O=c1cc(CO)occ1O [kojic acid]
^14CThioU. (%/control) ([1]; 0.5 mM): −47 %/control
^3HLeu. (%/control) ([2]; 0.5 mM): +4 %/control

N[C@@H](Cc1ccc(O)cc1)C(=O)O [tyrosine]
^14CThioU. (%/control) ([1]; 1 mM): +118 %/control
^3HLeu. (%/control) ([2]; 1 mM): −2 %/control
